Test results: patent publication US7384787B2, “Increasing perhydrolase activity in esterases and/or lipases” (Regents of the University of Minnesota, priority 2005, dated 2008)
Read-outs that look alike come from different tables or passages of the source.

How the values were obtained:
[1] = biological target: T1, Pseudomonas fluorescens aryl esterase (PFE) variant Leu29Pro (parent SEQ ID NO:3) (Pseudomonas fluorescens, UniProt P22862, L30P); experiment: Kinetics of p-nitrophenyl acetate hydrolysis, Leu29Pro PFE; type: biochemical; parameters: expressed as in Cheeseman et al. 2004
T1 sequence (P22862 1-272 L30P): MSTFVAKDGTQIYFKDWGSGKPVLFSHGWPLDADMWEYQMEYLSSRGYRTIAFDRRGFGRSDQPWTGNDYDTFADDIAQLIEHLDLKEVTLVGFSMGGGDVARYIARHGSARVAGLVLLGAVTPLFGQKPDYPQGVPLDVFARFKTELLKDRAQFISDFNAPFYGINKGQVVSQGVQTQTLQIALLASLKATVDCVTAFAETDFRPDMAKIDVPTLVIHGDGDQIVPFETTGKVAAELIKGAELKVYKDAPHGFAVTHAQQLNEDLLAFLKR
Protocol: (§1) The p-nitrophenyl acetate (pNPAc) assay contained pNPAc (0.3 mM) and 8% acetonitrile as co-solvent in BES buffer (5 mM, pH 7.2). The reaction was monitored spectrophotometrically at 404 nm (ε=11.4·10 ^3 M^−1 cm^−1). A pH-indicator assay was used to assay substrates without inherent light absorbing properties (Janes et al., 1998, Chem. Eur. J. 4:2324-2331). The reactions were carried out in BES buffer (5 mM, pH 7.2) containing p-nitrophenol. As hydrolysis progresses, protons add to the p-nitrophenolate and the course of reaction can be monitored as a decrease in absorbance at 404 nm (ε=16.5·10^3 M^−1 cm^−1). This provides a good estimate of reaction rates, but is limited to substrates containing only one possible acid-functionality, as several would interfere with the pH indicator.
(§2) Kinetic parameters for hydrolysis of pNPAc in wild-type and Leu29Pro were carried out with pNPAc at 0.1, 0.2, 0.5, 1.0, 2.0, 4.0, and 10 mM under otherwise identical conditions as for the pNPAc-assay. Solubility problems limited higher substrate concentrations than 10 mM. Data points were fitted by non-linear regression using OriginPro 7.5 SR1 v7.5776 (OriginLab Corporation, Northampton, Mass.) with a hyperbola function of basic equation y=P1*x/(P2+x), where x is the substrate concentration (mM), P1 corresponds to Vmax (μmol min^−1 mg^−1 or U/mg), and P2 corresponds to KM (mM). R^2-values for were 0.992 and 0.997 for wild-type and Leu29Pro, respectively.

[2] = biological target: T2, Pseudomonas fluorescens aryl esterase (PFE), wild-type, SEQ ID NO:3 (Pseudomonas fluorescens, UniProt P22862)
T2 sequence (P22862 1-272): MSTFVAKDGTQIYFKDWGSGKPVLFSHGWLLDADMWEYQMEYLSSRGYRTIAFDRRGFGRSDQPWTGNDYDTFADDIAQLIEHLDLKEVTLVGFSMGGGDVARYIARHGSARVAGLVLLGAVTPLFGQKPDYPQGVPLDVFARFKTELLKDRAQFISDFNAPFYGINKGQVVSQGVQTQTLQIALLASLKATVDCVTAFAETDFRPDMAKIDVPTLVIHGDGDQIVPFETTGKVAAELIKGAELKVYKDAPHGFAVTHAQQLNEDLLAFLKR
Protocol: (§3) Activity assays were performed in quadruplicates on 96-well microtiter plates with a reaction volume of 100 μl (90 μl assay solution to 10 μl enzyme in 5 mM BES pH 7.2). The path-length for light through the well was 0.29 cm.
(§4) The monochlorodimedon (MCD) assay (Hager et al., 1966, J. Biol. Chem., 241:1769-1777) was used to detect peracid formation. Each reaction contained MCD (0.18 mM), H2O2 (90 mM), NaBr (90 mM) in acetate buffer (1 M, pH 5.5) at 25° C. The reaction was followed spectrophotometrically at 290 nm in UV-transparent microtiter plates (ε=19.9×10^3 M^−1 cm^−1).
(§5) An estimate of kinetic parameters was also obtained for hydrogen peroxide in wild-type and Leu29Pro. The hydrogen peroxide in wild-type was 5, 10, 20, 50, 100, and 200 mM; for Leu29Pro, the concentrations were 5, 10, 20, 35, 50, 121, 152, and 200 mM.

[3] = biological target: T1, Pseudomonas fluorescens aryl esterase (PFE) variant Leu29Pro (parent SEQ ID NO:3)
Protocol: as §3, §4, §5

[4] = substrate: CC(=O)Oc1ccc([N+](=O)[O-])cc1; experiment: Kinetics of p-nitrophenyl acetate hydrolysis, wild-type PFE; type: biochemical, Pseudomonas fluorescens; conditions: other: hydrolysis of pNPAc 0.1-10 mM, 5 mM BES pH 7.2, 8% acetonitrile
Protocol: as §1, §2

[5] = substrate: CC(=O)Oc1ccc([N+](=O)[O-])cc1; experiment: Kinetics of p-nitrophenyl acetate hydrolysis, Leu29Pro PFE; type: biochemical, Pseudomonas fluorescens; conditions: other: hydrolysis of pNPAc 0.1-10 mM, 5 mM BES pH 7.2, 8% acetonitrile
Protocol: as §1, §2

[6] = perhydrolysis, H2O2 5-200 mM, 1 M acetate pH 5.5, 25° C.
[7] = perhydrolysis, H2O2 5-200 mM, 1 M acetate pH 5.5, 25° C., Leu29Pro

**Q.** `CC(=O)Oc1ccc([N+](=O)[O-])cc1` [pNPAc, p-nitrophenyl acetate] was tested. Which “fold decrease in Vmax for hydrolysis of pNPAc” value ([1]; Leu29Pro vs wild-type) did it give?
**A.** 50 fold

**Q.** And the “increase in KM for pNPAc” value ([1]; Leu29Pro vs wild-type)?
**A.** three-fold

**Q.** What about the “fold change in catalytic efficiency (Vmax/KM) for hydrolysis of pNPAc” value ([1]; Leu29Pro vs wild-type (decrease)) of the same molecule?
**A.** 165 fold

**Q.** Which results are given for `OO` [H2O2, hydrogen peroxide]?
**A.** Vmax/KM ([2]; perhydrolysis of acetic acid, H2O2): 13 U mg^−1 M^−1; Km [2, 6]: 17 mM; Vmax [2, 6]: 0.22 ± 0.02 U mg^−1; Vmax ([2]; perhydrolysis, H2O2 5-200 mM, 1 M acetate pH 5.5, 25° C., listed as hydrogen peroxide): 0.22 U mg^−1; fold increase in Vmax for perhydrolysis ([3]; Leu29Pro vs wild-type): 50 fold; fold increase in catalytic efficiency (Vmax/KM) for perhydrolysis of acetic acid ([3]; Leu29Pro vs wild-type): 14 fold; increase in Km for hydrogen peroxide ([3]; Leu29Pro vs wild-type): three-fold; Vmax/KM ([3]; perhydrolysis of acetic acid, H2O2, Leu29Pro): 180 U mg^−1 M^−1; Km [3, 7]: 58 mM; Vmax [3, 7]: 11 ± 1 U mg^−1; Vmax ([3]; perhydrolysis, H2O2 5-200 mM, 1 M acetate pH 5.5, 25° C., Leu29Pro, listed as hydrogen peroxide): 11 U mg^−1

B1: Pseudomonas fluorescens aryl esterase (PFE), wild-type, SEQ ID NO:3 (Pseudomonas fluorescens) (protein)
chain: MSTFVAKDGTQIYFKDWGSGKPVLFSHGWLLDADMWEYQMEYLSSRGYRTIAFDRRGFGRSDQPWTGNDYDTFADDIAQLIEHLDLKEVTLVGFSMGGGDVARYIARHGSARVAGLVLLGAVTPLFGQKPDYPQGVPLDVFARFKTELLKDRAQFISDFNAPFYGINKGQVVSQGVQTQTLQIALLASLKATVDCVTAFAETDFRPDMAKIDVPTLVIHGDGDQIVPFETTGKVAAELIKGAELKVYKDAPHGFAVTHAQQLNEDLLAFLKR
notes: expressed as in Cheeseman et al. 2004
**Q.** How did the Km [4] turn out when B1 was run?
**A.** 2.8 ± 0.4 mM

**Q.** And the Vmax [4]?
**A.** 143 µmol/min/mg

**Q.** And the Vmax/Km [4]?
**A.** 51000 µL/min/mg

B2: Pseudomonas fluorescens aryl esterase (PFE) variant Leu29Pro (parent SEQ ID NO:3) (Pseudomonas fluorescens; L30P) (protein)
chain: MSTFVAKDGTQIYFKDWGSGKPVLFSHGWPLDADMWEYQMEYLSSRGYRTIAFDRRGFGRSDQPWTGNDYDTFADDIAQLIEHLDLKEVTLVGFSMGGGDVARYIARHGSARVAGLVLLGAVTPLFGQKPDYPQGVPLDVFARFKTELLKDRAQFISDFNAPFYGINKGQVVSQGVQTQTLQIALLASLKATVDCVTAFAETDFRPDMAKIDVPTLVIHGDGDQIVPFETTGKVAAELIKGAELKVYKDAPHGFAVTHAQQLNEDLLAFLKR
notes: as for B1
**Q.** Which Km [5] does the source give for B2 here?
**A.** 8.9 ± 1.1 mM

**Q.** And the Vmax [5]?
**A.** 2.8 µmol/min/mg

**Q.** And the Vmax/Km [5]?
**A.** 310 µL/min/mg
